# US20250051375A1, “ANTI-HIV COMPOUNDS” (Gilead Sciences, Inc., priority 2023, published 2025)
# Where two headings read alike, the source gives them in different places.
# Columns and labels:
# [1] = target: bovine intestinal alkaline phosphatase (Bos taurus (Bovine), UniProt P19111); test: BiALP: conversion by bovine intestinal alkaline phosphatase; format: in vitro ADME; details: 2 μM substrate, 100 ng/mL iALP, Tris pH 7.8, 37° C., 60 minutes
# In short: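 Compounds at 2 μM final were incubated 60 min at 37° C in 0.1 M Tris-HCl pH 7.8 with 1 mM MgCl2 and 1 mM ZnCl2, with or without 100 ng/mL iALP (0.01 units/mL). Samples were quenched with acetonitrile/formic acid containing labetalol. Conversion was quantified by LC-MS peak area ratios against a 2 μM product standard.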
# HIV-1 IIIB strain = test: MT-4 HIV Wild Type Virus Infection Assay (IIIB Virus); format: cell-based; details: Human immunodeficiency virus 1, IIIB, MT4, 120 h, MT-4 cells acutely infected with HIV-1 IIIB, 5 day incubation, Cell-titer glo
# In short: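 MT-4 cells at 2×10^6 cells/ml in RPMI/10% FBS were acutely infected with HIV-1 IIIB for 1 h at 37° C, diluted 25× and added to serially diluted compounds. After 5 days at 37° C, viability read by CellTiter-Glo luminescence; EC50 from dose-response curves.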
# Solubility in FaSSIF = details: 23 °C, pH 6.5, fassif, thermodynamic from solid
# In short: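 Concentration measured by HPLC-UV after solid compound was dosed at 5 mg/mL into pH 6.5 fasted-state simulated intestinal fluid containing taurocholate and lecithin (4:1 molar) and vortexed.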
# [2] = Intestinal S9 Assay (human GI S9); format: in vitro ADME; details: 1.0 mg/mL S9 protein; for half-life at 2 μM: human, TRIS pH 7.4, read-out: Human GI S9 T½; for Human GI S9 T½: 2 μM, TRIS pH 7.4
# Protocol: (§1) Reagents. Stock solutions of test compounds in dimethyl sulfoxide (DMSO) having a final concentration of 10 mM were prepared and used in all experiments. Sekisui XenoTech (Kansas City, KS) provided pooled intestinal S9 fractions. All other chemicals were purchased from Sigma-Aldrich (St. Louis, MO) or VWR (West Chester, PA). Internal Standard/Quench (IS/Q) used to stop reactions was 100 nM labetalol in (by volume) formic acid (1%) and acetonitrile (99%).
# (§2) Intestinal S9 Assay: For each test compound, an aliquot of the test compound was added to S9 stock diluted with TRIS buffer (100 mM TRIS, 1 mM ZnCl2, 1 mM MgCl2), pH 7.4, to obtain an incubation protein concentration of 1.0 mg/mL. The incubation was initiated by the addition of the substrate to the S9 reaction mixture to a final concentration of 2 μM. At 0, 10, 20, 30, 60 and 120 min, 25 μL aliquots of the reaction mixture were transferred to plates containing 225 μl of IS/Q solution. After quenching, the plates were centrifuged at 3000×g for 30 minutes. 150 μL aliquots of each supernatant were transferred to new plates and 150 μL water was added. Aliquots (10 μL) of the prepared samples were analyzed on a Thermo Q-Exactive mass spectrometer as described below.
# (§3) Liquid Chromatography-Mass Spectrometry: Quantification of test compounds and control substrate was performed by analyte/internal standard peak area ratio (PAR) values measured on a Thermo Q-Exactive mass spectrometer coupled to a Dionex UltiMate 3000 HPLC with a Leap Technologies HTC PAL autosampler. The column used for analysis was a Thermo Scientific Hypersil GOLD (1.9 μm particle size, 50×2.1 mm). Mobile phase A consisted of 0.1% (v/v) formic acid in water. Mobile phase B consisted of 0.1% (v/v) formic acid in acetonitrile. Elution of analytes was achieved by a series of linear gradients varying the proportions of A and B. The mass spectrometer was calibrated on a weekly basis and mass tolerance of 5 ppm was used.
# (§4) Data Analysis. Metabolic stabilities were determined by measuring the rates of disappearance of test compound and positive control substrate. Data (% of substrate remaining) were plotted on a semi-log scale and fitted using an exponential decline model:
# (§5) where • Ct% of substrate remaining at time=t • C0% of substrate remaining at time=0 • t time • T½ half-life • The Half-life (T½) is determined by the following equation:
# (§6) [formula] • Assuming a first-order reaction, the slope (k) is extrapolated from the aforementioned plotted data.
# [3] = Intestinal S9 Assay (dog GI S9); format: in vitro ADME; details: dog, 1.0 mg/mL S9 protein, TRIS pH 7.4, read-out: Dog GI S9 T½
# Protocol: as §1, §2, §3, §4, §5, §6
# PBS Stability Assay = format: physicochemical; details: buffer, pH 7.4, 2 μM, phosphate buffered saline pH 7.4; read-out: PBS T½
# In short: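 Test compound at 2 μM final was incubated in PBS, pH 7.4, and sampled at 0, 10, 20, 30, 60 and 120 min into acetonitrile/1% formic acid quench with labetalol internal standard. Remaining compound was quantified by LC-MS peak-area ratio, and half-life came from a first-order exponential fit.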
# Chain of bovine intestinal alkaline phosphatase (P19111 20-506): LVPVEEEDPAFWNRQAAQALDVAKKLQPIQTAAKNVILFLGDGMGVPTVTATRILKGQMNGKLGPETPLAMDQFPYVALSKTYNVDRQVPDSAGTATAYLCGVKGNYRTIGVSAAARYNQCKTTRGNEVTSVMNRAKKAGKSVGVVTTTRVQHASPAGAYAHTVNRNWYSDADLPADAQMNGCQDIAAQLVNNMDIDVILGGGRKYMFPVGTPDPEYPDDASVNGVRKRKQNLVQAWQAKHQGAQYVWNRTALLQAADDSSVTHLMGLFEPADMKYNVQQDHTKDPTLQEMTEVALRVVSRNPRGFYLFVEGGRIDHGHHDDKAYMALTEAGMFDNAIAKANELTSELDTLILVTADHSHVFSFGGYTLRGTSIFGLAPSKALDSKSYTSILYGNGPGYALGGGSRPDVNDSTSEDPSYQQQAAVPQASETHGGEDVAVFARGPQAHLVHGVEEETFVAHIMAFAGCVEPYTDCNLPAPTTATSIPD
Structure (SMILES),[Compound] [1],EC50 (HIV-1 IIIB strain),solubility at 2 h (Solubility in FaSSIF),half-life at 2 μM [2],half-life at 2 μM [3],half-life at 2 μM (PBS Stability Assay),EC50 (HIV-1 IIIB strain; read-out: EC50),Human GI S9 T½ [2]
COC(=O)N[C@H](C(=O)N[C@@H](Cc1ccc(C#Cc2cnc(N3CC4CCC(C3)N4C3COC3)nc2)cc1)[C@H](CN(Cc1c(F)cc(-c2ccn(C(F)F)n2)cc1F)NC(=O)[C@@H](NC(=O)OC)C(C)(C)C(F)(F)F)OC(=O)CC(C)(C)c1c(CC(=O)N2[C@@H](C)CC[C@H]2C(=O)O)cc(C)cc1OP(=O)(O)O)C(C)(C)C(F)(F)F [Example 54],1661.6 nM,94 nM,3080 µg/mL,12.9 h,9.44 h,–,–,–
COC(=O)N[C@H](C(=O)N[C@@H](Cc1ccc(C#Cc2cnc(N3CC4CCC(C3)N4C3COC3)nc2)cc1)[C@H](CN(Cc1c(F)cc(-c2ccn(C(F)F)n2)cc1F)NC(=O)[C@@H](NC(=O)OC)C(C)(C)C(F)(F)F)OC(=O)CC(C)(C)c1c(CC(=O)N2CCC[C@H]2C(=O)O)cc(C)cc1OP(=O)(O)O)C(C)(C)C(F)(F)F [Example 79],2057.5 nM,645 nM,2680 µg/mL,10.2 h,9.38 h,–,–,–
"COC(=O)N[C@H](C(=O)N[C@@H](Cc1ccc(C#Cc2cnc(N3CC4CCC(C3)N4C3COC3)nc2)cc1)[C@H](CN(Cc1c(F)cc(-c2ccn(C(F)F)n2)cc1F)NC(=O)[C@@H](NC(=O)OC)C(C)(C)C(F)(F)F)OC(=O)CC(C)(C)c1c(C)cc(C(=O)O)cc1OP(=O)(O)O)C(C)(C)C(F)(F)F [Example 3, 4-((5S,10S)-8-(4-(1-(difluoromethyl)-1H-pyrazol-3-yl)-2,6-difluorobenzyl)-14-methyl-10-((1S)-2-(4-((2-(8-(oxetan-3-yl)-3,8-diazabicyclo[3.2.1]octan-3-yl)pyrimidin-5-yl)ethynyl)phenyl)-1-((S)-4,4,4-trifluoro-2-((methoxycarbonyl)amino)-3,3-dimethylbutanamido)ethyl)-3,6,12-trioxo-5-(1,1,1-trifluoro-2-methylpropan-2-yl)-2,11-dioxa-4,7,8-triazapentadecan-14-yl)-3-methyl-5-(phosphonooxy)benzoic acid]",1197.7 nM,–,–,1.98 h,0.685 h,4.19 h,96.6 nM,–
COC(=O)N[C@H](C(=O)N[C@@H](Cc1ccc(C#Cc2cnc(N3CC4CCC(C3)N4C3COC3)nc2)cc1)[C@H](CN(Cc1c(F)cc(-c2ccn(C(F)F)n2)cc1F)NC(=O)[C@@H](NC(=O)OC)C(C)(C)C(F)(F)F)OC(=O)CC(C)(C)c1c(CC(=O)N2[C@H](C(=O)O)C[C@@H]3CCCC[C@@H]32)cc(C)cc1OP(=O)(O)O)C(C)(C)C(F)(F)F [Example 55],1659.2 nM,3480 nM,< 1000 µg/mL,12.7 h,12 h,–,–,–
COC(=O)N[C@H](C(=O)N[C@@H](Cc1ccc(C#Cc2cnc(N3CC4CCC(C3)N4C3COC3)nc2)cc1)[C@H](CN(Cc1c(F)cc(-c2ccn(C(F)F)n2)cc1F)NC(=O)[C@@H](NC(=O)OC)C(C)(C)C(F)(F)F)OC(=O)CC(C)(C)c1c(CC(=O)NC23CC4CC(C2)CC(C(=O)O)(C4)C3)cc(C)cc1OP(=O)(O)O)C(C)(C)C(F)(F)F [Example 108],2296.1 nM,444 nM,< 1000 µg/mL,7.21 h,4.46 h,–,–,–
COC(=O)N[C@H](C(=O)N[C@@H](Cc1ccc(C#Cc2cnc(N3CC4CCC(C3)N4C3COC3)nc2)cc1)[C@H](CN(Cc1c(F)cc(-c2ccn(C(F)F)n2)cc1F)NC(=O)[C@@H](NC(=O)OC)C(C)(C)C(F)(F)F)OC(=O)CC(C)(C)c1c(CC(=O)Nc2cc(C#N)cc(C(=O)O)c2)cc(C)cc1OP(=O)(O)O)C(C)(C)C(F)(F)F [Example 63],1778.4 nM,244 nM,495 µg/mL,–,6.37 h,–,–,13.2 h
COC(=O)N[C@H](C(=O)N[C@@H](Cc1ccc(C#Cc2cnc(N3CC4CCC(C3)N4C3COC3)nc2)cc1)[C@H](CN(Cc1c(F)cc(-c2ccn(C(F)F)n2)cc1F)NC(=O)[C@@H](NC(=O)OC)C(C)(C)C(F)(F)F)OC(=O)CC(C)(C)c1c(CC(=O)Nc2cccc(S(=O)(=O)O)c2)cc(C)cc1OP(=O)(O)O)C(C)(C)C(F)(F)F [Example 105],1626.1 nM,217 nM,–,9.3 h,4.85 h,5.51 h,–,–
COC(=O)N[C@H](C(=O)N[C@@H](Cc1ccc(C#Cc2cnc(N3CC4CCC(C3)N4C3COC3)nc2)cc1)[C@H](CN(Cc1c(F)cc(-c2ccn(C(F)F)n2)cc1F)NC(=O)[C@@H](NC(=O)OC)C(C)(C)C(F)(F)F)OC(=O)CC(C)(C)c1c(CC(=O)N[C@@H](CCS(=O)(=O)O)C(=O)O)cccc1OP(=O)(O)O)C(C)(C)C(F)(F)F [Example 40],1458.8 nM,40.5 nM,4910 µg/mL,4.76 h,0.537 h,–,–,–
COC(=O)N[C@H](C(=O)N[C@@H](Cc1ccc(C#Cc2cnc(N3CC4CCC(C3)N4C3COC3)nc2)cc1)[C@H](CN(Cc1c(F)cc(-c2ccn(C(F)F)n2)cc1F)NC(=O)[C@@H](NC(=O)OC)C(C)(C)C(F)(F)F)OC(=O)CC(C)(C)c1c(CC(=O)NC2(C(=O)O)CCOCC2)cc(C)cc1OP(=O)(O)O)C(C)(C)C(F)(F)F [Example 31],2125.6 nM,276 nM,3510 µg/mL,8.24 h,3.71 h,–,–,–
COC(=O)N[C@H](C(=O)N[C@@H](Cc1ccc(C#Cc2cnc(N3CC4CCC(C3)N4C3COC3)nc2)cc1)[C@H](CN(Cc1c(F)cc(-c2ccn(C(F)F)n2)cc1F)NC(=O)[C@@H](NC(=O)OC)C(C)(C)C(F)(F)F)OC(=O)CC(C)(C)c1c(CC(=O)N2CCC[C@@H]2C(=O)O)cc(C)cc1OP(=O)(O)O)C(C)(C)C(F)(F)F [Example 111],1803.5 nM,452 nM,4760 µg/mL,10.3 h,1.64 h,–,–,–
COC(=O)N[C@H](C(=O)N[C@@H](Cc1ccc(C#Cc2cnc(N3CC4CCC(C3)N4C3COC3)nc2)cc1)[C@H](CN(Cc1c(F)cc(-c2ccn(C(F)F)n2)cc1F)NC(=O)[C@@H](NC(=O)OC)C(C)(C)C(F)(F)F)OC(=O)CC(C)(C)c1c(CC(=O)N2C[C@@H](O)C[C@H]2C(=O)O)cc(C)cc1OP(=O)(O)O)C(C)(C)C(F)(F)F [Example 56],1576.7 nM,254 nM,2400 µg/mL,–,6.89 h,–,–,13.2 h
COC(=O)N[C@H](C(=O)N[C@@H](Cc1ccc(C#Cc2cnc(N3CC4CCC(C3)N4C3COC3)nc2)cc1)[C@H](CN(Cc1c(F)cc(-c2ccn(C(F)F)n2)cc1F)NC(=O)[C@@H](NC(=O)OC)C(C)(C)C(F)(F)F)OC(=O)CC(C)(C)c1c(CC(=O)N2CC(C)(C)C[C@H]2C(=O)O)cc(C)cc1OP(=O)(O)O)C(C)(C)C(F)(F)F [Example 61],1611.1 nM,1890 nM,2580 µg/mL,11.7 h,11.2 h,–,–,–
